Experiments:
[1] = Viability of V79 MZ cells, alone or co-cultured with H1A2 MZ cells (bystander effect), with acetaminophen, trypan blue exclusion; format: cell-based, Chinese hamster; details: Chinese hamster; for viability at 4 mM: 4 mM acetaminophen 6 h, then 24 h in culture medium; for viability at 0 h, 4 mM / viability at 6 h, 4 mM: 4 mM acetaminophen in PBS
Protocol: (§1) Table 1 represents the bystander effect on viability produced by incubating H1A2 MZ cells (stably transfected with human CYP1A2) with various cell-lines in the presence of acetaminophen. Tumour cells or V79 MZ cells (non transfected, parental cells) were co-cultured overnight with various mixtures of H1A2 MZ cells (as indicated in the Table), […] the cells were then washed once with PBS and maintained for either 24 or 48 h in culture medium appropriate to each cell type, as detailed in the Methods section. At 0, 6, 24 or 48 h the cells were washed in PBS and viability of the mixed cell population determined by trypan blue exclusion. The data shown are mean values±SEM of 4 separate determinations. Statistical significance was determined at each time point by comparing viability measurements in the mixed cell populations with both the viability determined at 0 h and in the absence of H1A2 MZ cells in the mixture 2×2 contingency tables using the 2-tailed Chi-squared test with Yate's correction. Viability was determined in a total of 1500 cells at each time point. Levels of significance are indicated as **p<0.001; ***p<0.0001;
(§2) FIG. 4 represents the bystander effect on viability produced by incubating stably transfected, acetaminophen-activating H1A2 MZ cells with non-transfected parental V79 MZ cells. […] The cells were then washed in PBS and the viability of the mixed cell population determined by trypan blue exclusion. The cultures comprised V79 MZ cells only (open squares), and V79 MZ cells mixed with 5% (solid squares), 10% (open triangles), 25% (open circles) and 50% (solid circles) H1A2 MZ cells. In addition, the viability of H1A2 MZ cells in the presence (crosses) and absence (solid triangles) of acetaminophen is shown.

V79 MZ cells = test: as above; format: cell-based, Chinese hamster
Protocol: as §1, §2

SK-OV-3 cells = test: Bystander effect on viability of SK-OV-3 cells co-cultured with H1A2 MZ cells in the presence of acetaminophen, trypan blue exclusion; format: cell-based, human; details: for viability at 4000 µM: Homo sapiens
Protocol: (§3) Tumour cells or V79 MZ cells (non transfected, parental cells) were co-cultured overnight with various mixtures of H1A2 MZ cells (as indicated in the Table), washed with PBS and incubated with 4 mM acetaminophen in PBS for 6 h at 37° C. the cells were then washed once with PBS and maintained for either 24 or 48 h in culture medium appropriate to each cell type, as detailed in the Methods section. At 0, 6, 24 or 48 h the cells were washed in PBS and viability of the mixed cell population determined by trypan blue exclusion. The data shown are mean values±SEM of 4 separate determinations. Statistical significance was determined at each time point by comparing viability measurements in the mixed cell populations with both the viability determined at 0 h and in the absence of H1A2 MZ cells in the mixture 2×2 contingency tables using the 2-tailed Chi-squared test with Yate's correction. Viability was determined in a total of 1500 cells at each time point. Levels of significance are indicated as **p<0.001; ***p<0.0001;
(§4) For cell viability experiments 200,000 cells per well were plated on 12 well plates (Beckton-Dickenson, Oxford, UK), using the medium and conditions required by the tumour cell line and allowed to adhere overnight. After this the cells were washed with PBS before the addition of acetaminophen in 0.1 ml PBS (concentrations of 0.1–20 mM acetaminophen were dissolved in PBS by sonication) and then maintained at 37° C. At the appropriate time points, cells were removed from the plates by trypsinisation and collected by centrifugation. Cell viability was measured as ability to exclude trypan blue. Cells were counted at ×100 magnification using an Improved Neubauer haemocytometer; all cell counts are the mean of duplicate determinations of five fields from duplicate experiments.
(§5) V79 MZ Chinese hamster cells were maintained in Dulbecco-Vogt's modified Eagle's Medium (DMEM) supplemented with 10% foetal calf serum 9FCS), 2 mM L-glutamine, penicillin (100 U/ml and streptomycin (100 μg/ml) (all tissue culture reagents were obtained from Gibco BRL, Paisley, UK). H1A2 MZ cells, which are V79 MZ cells transfected with the human CYP1A2 gene, were also maintained in supplemented DMEM with the addition of geneticin at a concentration of 4 mg/ml. SK-OV-3 cells were grown in DMEM supplemented with 15% FCS and 2 mM L-glutamine, without the addition of antibiotics. RPMI-1640 medium with 10% FCS, 2 mM L-glutamine, penicillin (100 U/ml) and streptomycin ([…]) was required by the HCT116 cells. These cell lines were maintained at 37° C. with 100% humidity and 5% CO2. […] At confluence cells were removed from tissue culture flasks by inubation with trypsin-EDTA for 5 min, diluted 1:3–1:6 in fresh medium and seeded onto fresh flasks. The tumour cell lines were obtained from the European Collection of Cell Cultures.

HCT116 cells = test: Bystander effect on viability of HCT116 cells co-cultured with H1A2 MZ cells in the presence of acetaminophen, trypan blue exclusion; format: cell-based, human; details: for viability at 4000 µM: Homo sapiens
Protocol: as §3, §4, §5

[2] = V79 MZ cells + 5% H1A2 MZ cells
[3] = V79 MZ cells + 10% H1A2 MZ cells
[4] = V79 MZ cells + 25% H1A2 MZ cells
[5] = V79 MZ cells + 50% H1A2 MZ cells

CC(=O)Nc1ccc(O)cc1 [acetaminophen]
viability at 4 mM [1, 2]: 0%
viability at 0 h, 4 mM [1, 2]: 98 ± 1%
viability at 6 h, 4 mM [1, 2]: 52%
viability at 4 mM [1, 3]: 0%
viability at 0 h, 4 mM [1, 3]: 98 ± 1%
viability at 6 h, 4 mM [1, 3]: 39 ± 6%
viability at 4 mM [1, 4]: 0%
viability at 0 h, 4 mM [1, 4]: 97 ± 2%
viability at 6 h, 4 mM [1, 4]: 20 ± 4%
viability at 4 mM [1, 5]: 0%
viability at 0 h, 4 mM [1, 5]: 96 ± 3%
viability at 6 h, 4 mM [1, 5]: 15 ± 7%
viability at 4 mM ([1]; V79 MZ cells, 0% H1A2 MZ cells): 98 ± 1%
viability at 0 h, 4 mM ([1]; V79 MZ cells, 0% H1A2 MZ cells): 99 ± 1%
viability at 6 h, 4 mM ([1]; V79 MZ cells, 0% H1A2 MZ cells): 94 ± 7%
Viability (%) (V79 MZ cells; V79 MZ cells + 5% H1A2 MZ cells, 4 mM acetaminophen 6 h, then 24 h in culture medium): zero
Viability (%) (V79 MZ cells; V79 MZ cells, 0% H1A2 MZ cells, 4 mM acetaminophen in PBS, 6 h): no decline in cell viability
cell viability (V79 MZ cells; V79 MZ cells, which lack CYP1A2, acetaminophen 0.1–20 mM, 6 h): no loss of cell viability
viability at 4000 µM (SK-OV-3 cells; SK-OV-3, 0 h, SK-OV-3 cells + 5% H1A2 MZ cells, 4 mM acetaminophen in PBS, 0 h): 98 ± 1%
viability at 4000 µM (SK-OV-3 cells; SK-OV-3, 0 h, SK-OV-3 cells + 10% H1A2 MZ cells, 4 mM acetaminophen in PBS, 0 h): 98 ± 1%
viability at 4000 µM (SK-OV-3 cells; SK-OV-3, 0 h, SK-OV-3 cells + 25% H1A2 MZ cells, 4 mM acetaminophen in PBS, 0 h): 97 ± 1%
viability at 4000 µM (SK-OV-3 cells; SK-OV-3, 0 h, SK-OV-3 cells + 50% H1A2 MZ cells, 4 mM acetaminophen in PBS, 0 h): 98 ± 1%
viability at 4000 µM (SK-OV-3 cells; SK-OV-3, 0 h, SK-OV-3 cells, 0% H1A2 MZ cells, 4 mM acetaminophen in PBS, 0 h): 97 ± 1%
viability at 4000 µM (SK-OV-3 cells; SK-OV-3, 6 h, SK-OV-3 cells + 5% H1A2 MZ cells, 4 mM acetaminophen in PBS, 6 h): 55 ± 2%
viability at 4000 µM (SK-OV-3 cells; SK-OV-3, 6 h, SK-OV-3 cells + 10% H1A2 MZ cells, 4 mM acetaminophen in PBS, 6 h): 43 ± 7%
viability at 4000 µM (SK-OV-3 cells; SK-OV-3, 6 h, SK-OV-3 cells + 25% H1A2 MZ cells, 4 mM acetaminophen in PBS, 6 h): 22 ± 11%
viability at 4000 µM (SK-OV-3 cells; SK-OV-3, 6 h, SK-OV-3 cells + 50% H1A2 MZ cells, 4 mM acetaminophen in PBS, 6 h): 16 ± 9%
viability at 4000 µM (SK-OV-3 cells; SK-OV-3, 6 h, SK-OV-3 cells, 0% H1A2 MZ cells, 4 mM acetaminophen in PBS, 6 h): 98 ± 2%
viability at 4000 µM (SK-OV-3 cells; SK-OV-3, SK-OV-3 cells + 5% H1A2 MZ cells, 4 mM acetaminophen 6 h, then 24 h in culture medium): 0%
viability at 4000 µM (SK-OV-3 cells; SK-OV-3, SK-OV-3 cells + 10% H1A2 MZ cells, 4 mM acetaminophen 6 h, then 24 h in culture medium): 0%
viability at 4000 µM (SK-OV-3 cells; SK-OV-3, SK-OV-3 cells + 25% H1A2 MZ cells, 4 mM acetaminophen 6 h, then 24 h in culture medium): 0%
viability at 4000 µM (SK-OV-3 cells; SK-OV-3, SK-OV-3 cells + 50% H1A2 MZ cells, 4 mM acetaminophen 6 h, then 24 h in culture medium): 0%
viability at 4000 µM (SK-OV-3 cells; SK-OV-3, SK-OV-3 cells, 0% H1A2 MZ cells, 4 mM acetaminophen 6 h, then 24 h in culture medium): 96 ± 3%
Viability (%) (SK-OV-3 cells; SK-OV-3 cells + 5% H1A2 MZ cells, 4 mM acetaminophen 6 h, then 24 h in culture medium): zero
susceptibility to cytotoxicity produced by the activation of acetaminophen (SK-OV-3 cells; SK-OV-3 cells mixed with H1A2 MZ cells, 4 mM acetaminophen, 6 h): highly sensitive
Viability (%) (HCT116 cells; HCT116 cells + 5% H1A2 MZ cells, 4 mM acetaminophen 6 h, then 24 h in culture medium): zero
susceptibility to cytotoxicity produced by the activation of acetaminophen (HCT116 cells; HCT116 cells incubated with 5 and 10% H1A2 MZ cells, 4 mM acetaminophen, 6 h): disproportionate decrease in viability
viability at 4000 µM (HCT116 cells; HCT-116, 0 h, HCT116 cells + 5% H1A2 MZ cells, 4 mM acetaminophen in PBS, 0 h): 98 ± 1%
viability at 4000 µM (HCT116 cells; HCT-116, 0 h, HCT116 cells + 10% H1A2 MZ cells, 4 mM acetaminophen in PBS, 0 h): 98 ± 1%
viability at 4000 µM (HCT116 cells; HCT-116, 0 h, HCT116 cells + 25% H1A2 MZ cells, 4 mM acetaminophen in PBS, 0 h): 97 ± 1%
viability at 4000 µM (HCT116 cells; HCT-116, 0 h, HCT116 cells + 50% H1A2 MZ cells, 4 mM acetaminophen in PBS, 0 h): 98 ± 1%
viability at 4000 µM (HCT116 cells; HCT-116, 0 h, HCT116 cells, 0% H1A2 MZ cells, 4 mM acetaminophen in PBS, 0 h): 96 ± 1%
viability at 4000 µM (HCT116 cells; HCT-116, 6 h, HCT116 cells + 5% H1A2 MZ cells, 4 mM acetaminophen in PBS, 6 h): 69 ± 9%
viability at 4000 µM (HCT116 cells; HCT-116, 6 h, HCT116 cells + 10% H1A2 MZ cells, 4 mM acetaminophen in PBS, 6 h): 60 ± 6%
viability at 4000 µM (HCT116 cells; HCT-116, 6 h, HCT116 cells + 25% H1A2 MZ cells, 4 mM acetaminophen in PBS, 6 h): 56 ± 4%
viability at 4000 µM (HCT116 cells; HCT-116, 6 h, HCT116 cells + 50% H1A2 MZ cells, 4 mM acetaminophen in PBS, 6 h): 42 ± 6%
viability at 4000 µM (HCT116 cells; HCT-116, 6 h, HCT116 cells, 0% H1A2 MZ cells, 4 mM acetaminophen in PBS, 6 h): 96 ± 5%
viability at 4000 µM (HCT116 cells; HCT-116, HCT116 cells + 5% H1A2 MZ cells, 4 mM acetaminophen 6 h, then 24 h in culture medium): 0%
viability at 4000 µM (HCT116 cells; HCT-116, HCT116 cells + 10% H1A2 MZ cells, 4 mM acetaminophen 6 h, then 24 h in culture medium): 0%
viability at 4000 µM (HCT116 cells; HCT-116, HCT116 cells + 25% H1A2 MZ cells, 4 mM acetaminophen 6 h, then 24 h in culture medium): 0%
viability at 4000 µM (HCT116 cells; HCT-116, HCT116 cells + 50% H1A2 MZ cells, 4 mM acetaminophen 6 h, then 24 h in culture medium): 0%
viability at 4000 µM (HCT116 cells; HCT-116, HCT116 cells, 0% H1A2 MZ cells, 4 mM acetaminophen 6 h, then 24 h in culture medium): 96 ± 2%

Source: patent US7091040B1, “P450/acetaminophen genetically directed enzyme prodrug therapy (GDEPT)” (Innovata PLC, priority 1999, dated 2006)
